Legend:
KO-52 cells = assay: Proliferation assay (spheroid assay) in KO-52 control cell line; format: cell-based; settings: Homo sapiens, 192 h; KO-52 (MLL wildtype control), 8 days, confluence as measure of spheroid size; read-out: spheroid assay_OneTime KO-52 IC50
Method: (§1) The anti-proliferative effect of menin/MLL protein/protein interaction inhibitor test compounds was assessed in human leukemia cell lines. The cell line MOLM14 harbors a MLL translocation and expresses the MLL fusion proteins MLL-AF9, respectively, as well as the wildtype protein from the second allele. […] KO-52 was used as a control cell line containing two MLL (KMT2A) wildtype alleles in order to exclude compounds that display general cytotoxic effects.
MOLM14 cells were cultured in RPMI-1640 (Sigma Aldrich) supplemented with 10% heat-inactivated fetal bovine serum (HyClone), 2 mM L-glutamine (Sigma Aldrich) and 50 µg/ml gentamycin (Gibco). […]
In order to assess the anti-proliferative effects, 200 MOLM14 cells, or 300 KO-52 cells were seeded in 200 μl media per well in 96-well round bottom, ultra-low attachment plates (Costar, catalogue number 7007). […] Spheroid like growth was measured in real-time by live-cell imaging (IncuCyteZOOM, Essenbio, 4× objective) acquiring images at day 8. Confluence (%) as a measure of spheroid size was determined using an integrated analysis tool.
In order to determine the effect of the test compounds over time, the confluence in each well as a measure of spheroid size, was calculated. […]
Absolute IC50 values were calculated as percent change in confluence as follows: […]

MOLM14 cells = assay: Proliferation assay (spheroid assay) in MOLM14; format: cell-based; settings: Homo sapiens, MOLM-14, 192 h; MOLM14 (MLL-AF9), 8 days, confluence as measure of spheroid size; read-out: spheroid assay_OneTime MOLM14 IC50
Method: as §1
MOLM14 cells were cultured in RPMI-1640 (Sigma Aldrich) supplemented with 10% heat-inactivated fetal bovine serum (HyClone), 2 mM L-glutamine (Sigma Aldrich) and 50 µg/ml gentamycin (Gibco). KO-52 cell lines were propagated in alpha-MEM (Sigma Aldrich) supplemented with 20% heat-inactivated fetal bovine serum (HyClone), 2 mM L-glutamine (Sigma Aldrich) and 50 µg/ml gentamycin (Gibco).
In order to assess the anti-proliferative effects, 200 MOLM14 cells, or 300 KO-52 cells were seeded in 200 μl media per well in 96-well round bottom, ultra-low attachment plates (Costar, catalogue number 7007). Cell seeding numbers were chosen based on growth curves to ensure linear growth throughout the experiment. Test compounds were added at different concentrations and the DMSO content was normalized to 0.3%. Cells were incubated for 8 days at 37° C. and 5% CO2. Spheroid like growth was measured in real-time by live-cell imaging (IncuCyteZOOM, Essenbio, 4× objective) acquiring images at day 8. Confluence (%) as a measure of spheroid size was determined using an integrated analysis tool.
In order to determine the effect of the test compounds over time, the confluence in each well as a measure of spheroid size, was calculated. Confluence of the highest dose of a reference compound was used as baseline for the LC (Low control) and the confluence of DMSO treated cells was used as 0% cytotoxicity (High Control, HC).
Absolute IC50 values were calculated as percent change in confluence as follows:
LC=Low Control: cells treated with e.g. 1 μM of the cytotoxic agent staurosporin, or e.g. cells treated with a high concentration of an alternative reference compound
GraphPad Prism (version 7.00) was used to calculate the IC50. Dose-response equation was used for the plot of % Effect vs Log10 compound concentration with a variable slope and fixing the maximum to 100% and the minimum to 0%.

Menin/MLL = molecular target: T1, Menin/MLL (Homo sapiens, UniProt O00255, T541A); assay: Menin/MLL homogenous time-resolved fluorescence (HTRF) assay; format: binding; settings: 30 min incubation of test compound with terbium chelate-labeled menin; FITC-MBM1 peptide
T1 construct: Menin (a.a 1-610-6xhis tag)
T1 sequence (O00255 with tags, fused parts or gaps T541A): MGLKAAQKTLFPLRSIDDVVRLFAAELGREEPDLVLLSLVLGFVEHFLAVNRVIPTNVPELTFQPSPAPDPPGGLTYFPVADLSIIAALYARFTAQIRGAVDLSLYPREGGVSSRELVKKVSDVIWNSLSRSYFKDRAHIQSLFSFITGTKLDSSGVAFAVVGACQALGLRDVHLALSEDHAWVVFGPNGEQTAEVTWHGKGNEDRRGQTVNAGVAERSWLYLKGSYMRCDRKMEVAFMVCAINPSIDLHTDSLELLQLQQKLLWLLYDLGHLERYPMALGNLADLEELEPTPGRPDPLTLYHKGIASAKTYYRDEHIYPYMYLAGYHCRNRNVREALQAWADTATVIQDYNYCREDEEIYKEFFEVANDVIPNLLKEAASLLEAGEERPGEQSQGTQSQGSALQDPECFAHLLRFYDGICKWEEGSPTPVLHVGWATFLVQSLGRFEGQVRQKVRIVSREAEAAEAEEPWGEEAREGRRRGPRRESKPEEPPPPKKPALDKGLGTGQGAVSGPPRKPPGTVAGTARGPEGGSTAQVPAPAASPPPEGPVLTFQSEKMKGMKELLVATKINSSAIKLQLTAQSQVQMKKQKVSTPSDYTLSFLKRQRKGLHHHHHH
Method: 1) Menin/MLL homogenous time-resolved fluorescence (HTRF) assay
To an untreated, white 384-well microtiter plate was added 40 nL 200X test compound in DMSO and 4 μL 2X terbium chelate-labeled menin (vide infra for preparation) in assay buffer (40 mM Tris-HCl, pH 7.5, 50 mM NaCl, 1 mM DTT (dithiothreitol) and 0.05% Pluronic F-127). After incubation of test compound and terbium chelate-labeled menin for 30 min at ambient temperature, 4 μL 2X FITC-MBM1 peptide (FITC-β-alanine-SARWRFPARPGT-NH2 (SEQ ID NO: 2)) (“FITC” means fluorescein isothiocyanate) in assay buffer was added, the microtiter plate centrifuged at 1000 rpm for 1 min and the assay mixtures incubated for 15 min at ambient temperature. The relative amount of menin FITC--MBM1 complex present in an assay mixture is determined by measuring the homogenous time-resolved fluorescence (HTRF) of the terbium/FITC donor/acceptor fluorphore pair using an EnVision microplate reader (ex. 337 nm/terbium em. 490 nm/FITC em. 520 nm) at ambient temperature. The degree of fluorescence resonance energy transfer (the HTRF value) is expressed as the ratio of the fluorescence emission intensities of the FITC and terbium fluorophores (F^em 520 nm/F^em 490 nm). The final concentrations of reagents in the binding assay are 200 pM terbium chelate-labeled menin, 75 nM FITC-MBM1 peptide and 0.5% DMSO in assay buffer. Dose-response titrations of test compounds are conducted using an 11 point, four-fold serial dilution scheme, starting typically at 10 μM.
Compound potencies were determined by first calculating % inhibition at each compound concentration according to equation 1: […]
Where LC and HC are the HTRF values of the assay in the presence or absence of a saturating concentration of a compound that competes with FITC-MBM1 for binding to menin, and HTRF^compound is the measured HTRF value in the presence of the test compound. HC and LC HTRF values represent an average of at least 10 replicates per plate.
Where Bottom and Top are the lower and upper asymptotes of the dose-response curve, respectively, IC50 is the concentration of compound that yields 50% inhibition of signal and h is the Hill coefficient. IC50 values below 0.1 nM in the HTRF assay were reported as 0.1 nM in the Table below (detection limit).
Preparation of Terbium cryptate labeling of Menin: Menin (a.a 1-610-6xhis tag, 2.3 mg/mL in 20 mM Hepes (2-[4-(2-Hydroxyethyl)-1-piperazinyl]ethane sulfonic acid), 80 mM NaCl, 5 mM DTT (Dithiothreitol), pH 7.5) was labeled with terbium cryptate as follows. 200 μg of Menin was buffer exchanged into lx Hepes buffer. 6.67 μM Menin was incubated with 8-fold molar excess NHS (N-hydroxysuccinimide)-terbium cryptate for 40 minutes at room temperature. Half of the labeled protein was purified away from free label by running the reaction over a NAP5 column with elution buffer (0.1M Hepes, pH 7+0.1% BSA (bovine serum albumin)). The other half was eluted with 0.1 M phosphate buffered saline (PBS), pH7. 400 μl of eluent was collected for each, aliquoted and frozen at −80° C. The final concentration of terbium-labeled Menin protein was 115 μg/mL in Hepes buffer and 85 μg/mL in PBS buffer, respectively.

IC50 (MOLM14 cells): 20 nM
IC50 (Menin/MLL): 0.376 nM
SMILES: CCN(C(=O)c1cc(F)ccc1Oc1nncnc1N1CCC2(C1)CN(C(CCCN(C)CCOC(F)(F)F)C(C)C)C2)C(C)C (single isomer, unassigned) [Compound 2]
IC50 (KO-52 cells): 14600 nM
